Several values for one entry are separate records, joined by “and”; a condition that tells them apart may be missing. Equal values may be shown once.
Assay: Speciation / hydrolytic stability of POT solutions in 50 mM Na-citrate buffer pH 6.8 by 31P-NMR and 183W-NMR
Format: physicochemical
Details: for 31P-NMR spectrum 96 h after preparation compared with 48 h: for [P2W12]: signal at −8.3 ppm of hexalacunary anion; for Share of unidentified / unstable solution intermediates: 31P-NMR integrated POT signals, aged solutions; for Share of monolacunary [α2-P2W17O61]10− in solution, 48 h after preparation / Share of monolacunary [α2-P2W17O61]10− in solution, fresh (1 h after preparation) / Share of unchanged educt anion in solution, after 48 h / Share of unchanged educt anion in solution, fresh (1 h): 31P-NMR peak integration; for Share of free phosphate in solution: fresh and 48 h aged ([P2W15]), after rearrangement ([P2W12])
Description: The detailed structural information about species under the respective experimental conditions is essential for understanding of POT activity. […] The concentration of all species was calculated based on ^31P-NMR peaks integration. Since the stock solutions of each Wells–Dawson POT was used up to three days after preparation and ^183W-NMR acquisition takes 60 h, ^31P-NMR spectra for all four solutions have been recorded 1 h and 48 h after preparation to check if speciation changes occur over time. […] In the solution of intact POT one hour after preparation 12% of [α2-P^V2W^VI17O61]^10− was detected based on ^31P-NMR peaks integration (Fig. 3A), whereas 48 h after dissolution the concentration of monolacunary anion increased to 69%. […] The ^183 W-NMR spectra of monolacunary [P2W17]^10− (Fig. S8A) and trilacunary [P2W15]^12− (Fig. S8C) are in agreement with ^31P-NMR data confirming the presence of only the monolacunary anion by 9 signals. The ^31P-NMR spectrum of fresh hexalacunary POT [P2W12]^12− (Fig. 3D) points to the presence of unhydrolyzed hexalacunary [H2P^V2W^VI12O48]^12− (72%) together with a low amount of monolacunary [α2-P^V2W^VI17O61]^10− (20%). After 48 h, the signals corresponding to hexalacunary [H2P^V2W^VI12O48]^12− and monolacunary [α2-P^V2W^VI17O61]^10− decreased to 9% and 3%, respectively, while two intense signals at − 7.5 and − 9.5 ppm appeared. […] The signal at − 7.5 ppm corresponds to [P^V8W^VI48O184]^40−, which was previously detected in solutions with a high amount of NH 4^+[37]. The presence of four different POTs in [P2W12]^12− 48 h after preparation renders the detection of all species’ signals in the ^183W-NMR spectrum impossible due to their low concentrations and the low abundancy (14%) of the ^183W isotope (Fig. S8D). The most intense signals at -190.3, -191.6 and -211.3 ppm correspond to three types of W ions in cyclic [P^V8W^VI48O184]^40−[43]. ^31P-NMR spectra recorded 96 h after preparation are identical to those recorded after 48 h for [P2W18]^6−, [P2W17]^10− and [P2W15]^12−. […] In every ^31P-NMR analysis, peaks for free phosphate were observed, indicating the release of HxPO4^x−3 from the POT clusters as a consequence of partial decomposition or rearrangement (Fig. 3). The weak signals between − 12 and − 7 ppm in the ^31P-NMR spectra (Fig. 3) with a total amount of no more than 19% of all POT signals, correspond to solution intermediates of unknown identity that have been reported previously.
^183W-NMR and ^31P-NMR were recorded with a Bruker FT-NMR spectrometer Avance Neo 500 MHz (Bruker, Rheinstetten, Germany) at 25 °C. Chemical shifts were measured relative to 1 M Na2WO4 and 85% H3PO4. ^183W-NMR samples were prepared in 2.7 mL Na-citrate buffer (50 mM, pH 6.8) with a POT concentration of 2 mM with or without 1 mM L-DOPA and measured in 10 mm tubes. The experimental time was ca. 60 h, with a standard pulse program at 20.836 MHz and a 63° flip angle with 1 s relaxation delay. Subsequently, ^31P-NMR was measured at 202.53 MHz.
^183W-NMR was performed in 50 mM Na-citrate buffer at pH 6.8 to obtain insight into the chemical speciation and hydrolytic stability of POTs. The peaks of the ^183W-NMR for [P2W18]^6− are shifted by approx. 4–5 ppm downfield relative to the assignment in the literature (Table S2). The slight shifting can be explained by different buffer conditions and ionic strength of the solution with regard to the reference data.
The ^183W-NMR speciation indicates the presence of [α2-P^V2W^VI17O61]^10− anions in [P2W18]^6−, [P2W17]^10−, [P2W15]^12− at pH 6.8 (Figs. S8, S12). For the ^183W-NMR of [P2W18]^6− at pH 4 two lines (1:2) were assigned (Fig. S7), whereas for the same compound at neutral pH a mixture of [α-P^V2W^VI18O62]^6− (1:2) and [α2-P^V2W^VI17O61]^10− (2:2:2:2:1:2:2:2:2) was observed (Fig. S8). Also, the β-isomer was detected at pH 4 and pH 6.8, respectively (Figs. S7, S8). […]

[1] = 31P-NMR, 50 mM Na-citrate pH 6.8

Substance	31P-NMR spectrum 96 h after preparation compared with 48 h (50 mM Na-citrate pH 6.8)	Share of unidentified / unstable solution intermediates (50 mM Na-citrate pH 6.8)	Share of monolacunary [α2-P2W17O61]10− in solution, 48 h after preparation (50 mM Na-citrate pH 6.8)	Share of monolacunary [α2-P2W17O61]10− in solution, fresh (1 h after preparation) (50 mM Na-citrate pH 6.8)	Share of unchanged educt anion in solution, after 48 h (50 mM Na-citrate pH 6.8)	Share of unchanged educt anion in solution, fresh (1 h) (50 mM Na-citrate pH 6.8)	Share of [P2W19O69(H2O)]14− in solution after 48 h [1]	Share of [P8W48O184]40− in solution after 48 h [1]	Share of free phosphate in solution [1]	Influence of the substrate L-DOPA on the POT solution (reduction / speciation) (50 mM Na-citrate pH 6.8)	Dominant POT species at pH 6.8 in Na-citrate buffer	Stable in Na-citrate buffer at pH 6.8	Share of monolacunary [α2-P2W17O61]10− in solution, 48 h after preparation (50 mM Na-citrate pH 6.8, listed as [α/β-P^V2W^VI18O62]^6−)	Sample composition after 28 days storage (Na-citrate buffer pH 6.8, room temperature, 183W-NMR and 31P-NMR)	Share of monolacunary [α2-P2W17O61]10− in solution, fresh (1 h after preparation) (50 mM Na-citrate pH 6.8, listed as [P^V2W^VI15O56]^12−)
(NH4)12[H2P^V2W^VI12O48]·24H2O [[P2W12]^12−]	disappeared completely	19%	3%	20%	9%	72%	22%	23%	24%	no change in speciation	[H2P^V2W^VI12O48]^12− + Hx[α2-P^V2W^VI17O61]^(10−x)− + [P^V2W^VI19O69(H2O)]^14− + [P^V8W^VI48O184]^40−	No			
K6[α/β-P^V2W^VI18O62]·14H2O [[P2W18]^6−]	identical	9%	69%		15%	88%				turned blue	Hx[α2-P^V2W^VI17O61]^(10−x)−	No	~ 69%	low amounts of the α-isomer were found, but no β-isomer was detected	
K10[α2-P^V2W^VI17O61]·20H2O [[P2W17]^10−]	identical	8%	92%							no change in speciation	Hx[α2-P^V2W^VI17O61]^(10−x)−	Yes			
K12[P^V2W^VI15O56]·24H2O [[P2W15]^12−]	identical	3% and 5%	62% and 61%	62%					35%	no change in speciation	Hx[α2-P^V2W^VI17O61]^(10−x)−	No			~ 62%

— article PMC8481536, “Wells–Dawson phosphotungstates as mushroom tyrosinase inhibitors: a speciation study” (Scientific Reports, 2021)
